In US12440537B1, “Compositions and methods for treating skin diseases, disorders, or conditions” (Washington University, priority 2020, dated 2025):
Ends that are not written are not given here.

Tests used:
vitamin D receptor [1] = target: T1, vitamin D receptor (Mus musculus, UniProt P48281); experiment: Nuclear localization of vitamin D receptor in MC903-treated keratinocytes; format: cell-based; parameters: endogenous in cells; host or cells: Ivl-/- keratinocytes; conditions: MC903 treated lvl-/- keratinocytes
T1 sequence (P48281 1-422): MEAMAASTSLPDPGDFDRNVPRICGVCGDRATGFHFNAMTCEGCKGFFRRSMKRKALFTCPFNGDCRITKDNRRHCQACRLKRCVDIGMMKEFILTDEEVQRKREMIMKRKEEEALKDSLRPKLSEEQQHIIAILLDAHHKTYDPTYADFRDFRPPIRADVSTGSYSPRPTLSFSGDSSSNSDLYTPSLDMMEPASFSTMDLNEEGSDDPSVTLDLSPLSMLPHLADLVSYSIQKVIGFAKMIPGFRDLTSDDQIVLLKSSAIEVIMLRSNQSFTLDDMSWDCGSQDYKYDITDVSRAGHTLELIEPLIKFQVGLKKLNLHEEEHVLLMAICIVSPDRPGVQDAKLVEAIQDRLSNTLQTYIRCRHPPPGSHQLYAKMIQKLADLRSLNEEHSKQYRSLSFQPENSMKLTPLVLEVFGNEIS

vitamin D receptor [2] = target: T1, vitamin D receptor; experiment: MC903 vitamin D receptor-mediated skin inflammation in WT and Involucrin (lvl) -/- mice; format: in vivo; parameters: from tissue; host or cells: skin of WT and Ivl-/- mice (in vivo)
Protocol: Here, vitamin D receptor-mediated skin inflammation was induced in Involucrin (lvl) -/- mice and vitamin D receptor function in the epidermis was evaluated (see e.g., FIG. 14). It was shown that vitamin D receptor-induced inflammation is reduced in lvl^-/- skin (see e.g., FIG. 15). […] Basophils are a major source of IL-4 and IL-6 expression that drives skin inflammation (see e.g., FIG. 21).

keratinocytes [3] = experiment: IVL peptide protection against keratinocyte cell (detergent) lysis; format: cell-based; conditions: keratinocytes treated with IVL late repeat peptide
keratinocytes [4] = experiment: Keratinocyte barrier function after IVL peptide treatment; format: cell-based; conditions: keratinocytes treated with IVL peptide

CD4+ T cells (vitamin D receptor [2]; MC903-treated lvl-/- skin) | vitamin D receptor induced inflammation (vitamin D receptor [2]; MC903 treatment, lvl-/- skin compared to WT) | Compound | nuclear localization of vitamin D receptor (vitamin D receptor [1]) | cell type populations (scRNA-seq) (vitamin D receptor [2]; MC903-treated lvl-/- skin) | protection against keratinocyte cell lysis (keratinocytes [3]) | protection against keratinocyte cell lysis (keratinocytes [3]; listed as IVL late repeat peptide) | protection against keratinocyte cell lysis (keratinocytes [3]; listed as “late” repeat IVL peptide) | keratinocyte barrier function (keratinocytes [4])
significantly decreased | significantly reduced as early as day 6 | C=C1/C(=C\C=C2/CCC[C@]3(C)[C@@H]([C@H](C)/C=C/[C@@H](O)C4CC4)CC[C@@H]23)C[C@@H](O)C[C@@H]1O [MC903] | loss of nuclear localization of vitamin D receptor | Decreased basophils, macrophages, CD4^+ T cells, and basal II keratinocytes, and increased suprabasal keratinocytes | – | – | – | –
– | – | ELPEQQEGQL (ELPEQQEGQL-NH2) [IVL peptide] | – | – | protects against keratinocyte cell lysis | protects the keratinocyte from detergent lysis | resistant to detergent lysis | improves keratinocyte barrier function
